Test results as given in the OPERA property sets (Mansouri et al. 2018).
Residues, ends and D or L forms follow the SMILES beside them. *: point of attachment. Cbz = O=C(OCc1ccccc1)*

CCOP(=O)(OCC)Oc1ccc(SC)c(C)c1
logP: 3.28

CCNC(=O)CNC(=O)C=[N+]=[N-]
logP: -0.62

c1ccc(Nc2ccccn2)cc1
logP: 2.75

CC(=O)OCC1=C(C(=O)O)N2C(=O)C(NC(=O)CSc3cc(Cl)ccc3Cl)C2SC1 (stereo unspecified)
logP: 1.66

OCC1OC(SCCc2ccccc2)C(O)C(O)C1O (stereo unspecified)
logP: -0.1

CCOC(=O)c1ccc2ncccc2c1
logP: 2.64

CN1C(=O)CN=C(c2ccccc2F)c2cc(I)ccc21
logP: 3.14

CCCCSc1ccccc1OC(=O)NC
logP: 2.98

CNC(=O)Oc1cc(C)cc(C(C)(C)C)c1
logP: 3.35

CC(=O)c1ccc(NS(=O)(=O)C(F)(F)F)cc1
logP: 2.83

COc1cc(C)nc(-n2nc(C)cc2OC)n1
logP: 1.26

CNc1cc(Cc2cnc(N)nc2N)cc(N(C)C(C)=O)c1C
logP: 0.53

CCOP(=O)(OCC)SCS(=O)CC (stereo unspecified)
logP: 1.78

CCCCN(C)CCS(=O)(=O)c1cc(OC)c(OC)c(OC)c1
logP: 2.05

CS(=O)(=O)Oc1ccccc1Cc1cnc(N)nc1N
logP: 0.71

NC(=S)c1ncccn1
logP: -0.34

Cc1ccc(C=C[N+](=O)[O-])cc1
logP: 2.66

Oc1ccc(C(c2ccncc2)c2ccc(O)cc2)cc1
logP: 3.24

CN(C)c1ccc(N=C2C=CC(=O)C=C2)cc1
logP: 2.02

O=C1CN=C(c2ccccc2)c2cc([N+](=O)[O-])ccc2N1CC(O)CO (stereo unspecified)
logP: 0.96

CCOC(=O)C(=Cc1cccc(F)c1)C(=O)OCC
logP: 3.19

O=NN(CCCl)C(=O)NC1CCSCC1
logP: 2.07

OCC1OC(Oc2ccc(I)c(OC3OC(CO)C(O)C(O)C3O)c2I)C(O)C(O)C1O (stereo unspecified)
logP: -1.31

O=C(c1ccncc1)c1ccc(Cl)cc1
logP: 2.61

COc1cc(OC)cc(OC(=O)CNC(=O)c2ccccc2)c1
logP: 2.69

COc1cc(Cc2cnc(N)nc2N)ccc1C(C)(C)O
logP: 1.38

COC(=O)C(C#N)=NNc1c(Cl)cc(C(F)(F)F)cc1Cl
logP: 4.36

CN(N=O)C(=O)Oc1cccc2ccccc12
logP: 2.85

CC1NCCN1CCO (stereo unspecified)
logP: -1.93

CNC(=O)C(NC(C)=O)C(C)C (stereo unspecified)
logP: -0.35

CC1N=C(c2ccccc2Cl)c2cc(Cl)ccc2N(C)C1=O (stereo unspecified)
logP: 3.4

CC(=O)c1ccccc1NCCO
logP: 1.59

CC(C)(C)CC(N)C(=O)O (stereo unspecified)
logP: -1.42

CN1CCN(C)C1=Nc1ncc([N+](=O)[O-])s1
logP: 0.95

O=C1CN=C(c2c(F)cccc2F)c2ccc(Cl)cc2N1
logP: 2.88

COCN1C(=O)CN=C(c2ccccc2Cl)c2cc(Cl)ccc21
logP: 3.23

O=C1CCC(=O)N1c1cccc(C(F)(F)F)c1
logP: 1.26

FC1C(Cl)C(Cl)C(Cl)C(Cl)C1Cl (stereo unspecified)
logP: 3.19

Nc1ccccc1C(c1ccc(O)cc1)c1ccc(O)cc1
logP: 3.16

CNC(=O)NN
logP: -2.2

CC(C)Oc1cn[nH]c1
logP: 1.13

CNc1nc(=O)cc(-c2ccc([N+](=O)[O-])o2)s1
logP: 0.86

CC(C)=CC1C(C(=O)OCc2cccc([N+](=O)[O-])c2)C1(C)C (stereo unspecified)
logP: 5.2

COc1cc(Cc2cnc(N)nc2N)cc(OC)c1N
logP: 0.83

Cc1nc(-c2ccccn2)no1
logP: 0.79

CC(=O)c1cccc(NS(=O)(=O)C(F)(F)F)c1
logP: 2.78

CNc1ccc(C(=O)OCCN(C)C)cc1
logP: 1.95

CNP(=O)(OC)Oc1ccc(C(C)(C)C)cc1 (stereo unspecified)
logP: 2.71

CCN(CC)CCNC(=O)c1cc(F)cc(Cl)c1OC
logP: 3.18

NC(=O)Nc1ccc(Oc2ccc(Br)cc2)cc1
logP: 3.7

O=c1cn[nH]c2ccccc12
logP: 0.82

COc1cccc(C=C(C(C)=O)C(C)=O)c1
logP: 1.79

CN(/N=N/c1nc[nH]c1C(N)=O)C(C)(C)C
logP: 0.94

COP(=O)(OC)Oc1ccc([N+](=O)[O-])c(C)c1
logP: 1.69

CC1=Nc2ccc(F)cc2S(=O)(=O)N1
logP: 0.62

CCOC(=O)c1c(OC)cc(Cc2cnc(N)nc2N)cc1OC
logP: 1.25

O=S(=O)(Nc1cccc(Br)c1)C(F)(F)F
logP: 3.82

N#CSc1ccccc1
logP: 2.54

COC(=O)C(C#N)=NNc1cc(Cl)c(Cl)cc1Cl
logP: 5.15

NC1CC2CC1c1cc(C(F)(F)F)ccc12 (stereo unspecified)
logP: 3.19

CCOC(=O)C(=Cc1ccccc1Cl)C(=O)OCC
logP: 3.15

COc1cc(Cc2cnc(N)nc2N)cc(OC)c1C(N)=O
logP: -0.85

NC(=O)NN=CCCc1ccccc1
logP: 2.32

c1ccc(-c2ncnc3ccccc23)cc1
logP: 2.71

N#Cc1c(N)sc2ccccc12
logP: 2.17

COc1cc(Cc2cnc(N)nc2N)ccc1C
logP: 2.14

C=CCN1C(=O)SC(=Cc2ccc([N+](=O)[O-])o2)C1=O
logP: 2.22

Cc1nnc(-c2ccccn2)o1
logP: 0.46

Nc1nc(=O)c2ccccc2[nH]1
logP: 0.6

CCCCC1OC(=O)c2cc([N+](=O)[O-])ccc21 (stereo unspecified)
logP: 2.92

COc1cc(-n2nc(C)cc2OC)nc(OC)n1
logP: 1.86

CSc1ccc2c(c1)C(c1ccccc1)=NCC(=O)N2C
logP: 2.95

CCCNCC(=O)NC(=O)C=[N+]=[N-]
logP: -0.24

COc1cc(Cc2cnc(N)nc2N)cc(OC)c1CO
logP: 0.42

CC(=O)NNC(=O)c1ccccc1N=NN(C)C
logP: 1.18

Clc1cccc(Cl)c1-c1ccccc1
logP: 4.98

OCCCCn1nnc2ccccc21
logP: 1.03

CCSc1c(OC)cc(Cc2cnc(N)nc2N)cc1OC
logP: 1.79

CN(C)N=Nc1ccc(C#N)cc1
logP: 2.39

C[N+](C)(C)Cc1ccccn1.[Br-]
logP: -3.4

N#Cc1cc[n+]([O-])cc1
logP: -0.94

CN(C)/N=N/c1ccccc1C(=O)NC#N
logP: 0.8

CSc1nnc(C2CCCCC2)c(=O)n1N
logP: 2.14

CC(C)(C)c1cc(OC2OC(CO)C(O)C(O)C2O)cc(C(C)(C)C)c1 (stereo unspecified)
logP: 2.73

COC(=O)C(C#N)=NNc1cc(C(F)(F)F)ccc1Cl
logP: 4.42

CC(C)C(NC(=O)C(Cc1ccccc1)NC(=O)OCc1ccccc1)C(=O)O (stereo not drawn) (Cbz-Phe-Val-OH; configuration not given here)
logP: 2.88

O=S1(=O)NC(CCl)=Nc2cc(Cl)ccc21
logP: 1.68

CCCC12CC3CC(CC(N)(C3)C1)C2
logP: 3.76

CCS(=O)(=O)c1cc(OC)c(OC)c(OC)c1
logP: 1.05

CNC(=O)ON=Cc1ccc(Cl)cc1
logP: 2.27

ClC1C(Cl)C(Cl)C(Br)C(Br)C1Cl (stereo unspecified)
logP: 3.88

CCCCCCCCCC[n+]1ccccc1.[Br-]
logP: -0.72

CCCCNc1ccccc1C(N)=O
logP: 2.33

CCN1CCN=C1Nc1ncc([N+](=O)[O-])s1
logP: 2.28

CCOP(N)(=O)SCC (stereo unspecified)
logP: 0.15

Nc1nc(-c2ccccc2)c2ccccc2n1
logP: 2.95

COc1cc(Cc2cnc(N)nc2N)cc(OC)c1C(=O)N(C)C
logP: -0.21

CN(C)c1cccc(C(N)=O)c1
logP: 0.95

Nc1nc(N)nc(-c2cc(Br)ccc2F)n1
logP: 1.94

CCS(=O)(=O)CCn1ccnc1[N+](=O)[O-]
logP: -0.58

CN(C)CCc1ccsc1
logP: 1.94

COc1ccccc1N=NN(C)C
logP: 2.34

CC1=Nc2c(Cl)cccc2S(=O)(=O)N1
logP: 0.72

O=C(Cn1ccnc1[N+](=O)[O-])N(CO)CO
logP: -1.59

CN(C)C(=O)Oc1ccccc1Br
logP: 2.17

CNC(=O)Oc1cccc([N+](=O)[O-])c1
logP: 1.39

O=NN1CCCCCCCC1
logP: 2.04

COc1cc(Cc2cnc(N)nc2N)ccc1O
logP: 0.64

CS(=O)(=O)c1cccs1
logP: 0.38

ClC1C(Cl)C(Cl)C(Br)C(Cl)C1Cl (stereo unspecified)
logP: 3.74

COc1cc(CC(C)N)c(OC)cc1Br (stereo unspecified)
logP: 2.58

CC(=O)OCC1=C(C(=O)O)N2C(=O)[C@@H](NC(=O)CBr)[C@H]2SC1
logP: -0.7

CN(C)c1nnc(-c2ccccc2)c2ccccc12
logP: 3.22

CCOCCn1ccnc1[N+](=O)[O-]
logP: 0.53

O=C1CN=C(c2ccccc2Cl)c2cc(Br)ccc2N1
logP: 3.3

CC(C)OCC(O)Cn1ccnc1[N+](=O)[O-] (stereo unspecified)
logP: 0.51

CSC(C)=NOC(=O)N(C)SN(C)C(=O)OC1CCCCC1
logP: 3.6

CSC(C)=NOC(=O)N(C)SN(C)C(=O)c1cccc(C(F)(F)F)c1
logP: 2.5

O=NN(CCCl)C(=O)NC(CCC(=O)O)C(=O)O (stereo unspecified)
logP: 0.6

CCCOn1c(=O)c(Br)c(C)n(C)c1=O
logP: 0.72

CSCC1=C(C(=O)O)N2C(=O)C(NC(=O)Cc3cccs3)C2SC1 (stereo unspecified)
logP: 1.01

CCc1ccc2c(c1)N=C(C)NS2(=O)=O
logP: 1.25

Cc1c[n+]([O-])c2ccccc2c1[N+](=O)[O-]
logP: 1.06

Cc1ccc2c([N+](=O)[O-])cc[n+]([O-])c2c1
logP: 1.42

O=C(O)COc1cccc(S(F)(F)(F)(F)F)c1
logP: 2.78

COc1cn[nH]c1
logP: 0.37

N#Cc1ccc(C=CNC=O)cc1
logP: 1.62

O=[N+]([O-])c1ccc(OCCn2ccnc2)cc1
logP: 1.69

COc1cc(Cc2cnc(N)nc2N)c(Cl)c(OC)c1
logP: 2.13

CC1CN(C(=O)c2ccccc2)CC(C)N1N=O (stereo unspecified)
logP: 1.04

COc1ccc(C(=O)c2ccncc2)cc1
logP: 1.94

COc1cc(C)c(Cc2cnc(N)nc2N)cc1OCc1ccccc1
logP: 2.69

O=C(O)Cc1ccc(S(=O)(=O)F)cc1
logP: 1.86

O=C1C=C(Nc2ccccc2)C(=O)c2ccccc21
logP: 2.84

O=CNc1nccs1
logP: 0.54

COC(CN1CCCC1)c1ccccc1 (stereo unspecified)
logP: 1.88

CCc1cc(NC(C)=O)ccc1O
logP: 1.31

CCOC(=O)C(C#N)=NNc1cccc(Cl)c1
logP: 3.94

Nc1ncc(Cc2cc(Cl)c(Cl)c(Cl)c2)c(N)n1
logP: 3.64

CN(C)/N=N/c1ccccc1C(=O)NN
logP: 1.28

CC(=O)OCC(Cn1ccnc1[N+](=O)[O-])OC(C)=O (stereo unspecified)
logP: -0.05

COc1cc(C=C[N+](=O)[O-])ccc1O
logP: 1.88

COc1ccc(C(c2ccc(OC)cc2)C(Cl)Cl)cc1
logP: 4.47

CCC1(CC)SCC(=O)NC1=O
logP: 1.52

O=C1CN=C(c2ccccc2[N+](=O)[O-])c2cc([N+](=O)[O-])ccc2N1
logP: 1.61

CC(=O)Nc1ccc(OC(=O)CBr)cc1
logP: 1.08

O=C(O)COc1ccc(Cl)c(C(=O)O)c1
logP: 1.07

COc1cccc(NC=O)c1
logP: 1.25

Nc1ncc(Cc2cc(Cl)c(Cl)cc2Cl)c(N)n1
logP: 3.79

COCCn1ccnc1[N+](=O)[O-]
logP: 0.12

CC(C)CC1=Nc2cc(Cl)ccc2S(=O)(=O)N1
logP: 2.35
